Data reported in the supplement of paper PMC10307832.

Columns and labels:
Assay in all cases: relative viability (nuclei count vs DMSO), 5 days (fraction); higher = more cells survive
IPA-3 + Luminespib = compound: C1=CC=C2C(=C1)C=CC(=C2SSC3=C(C=CC4=CC=CC=C43)O)O [IPA-3] + CCNC(=O)c1noc(-c2cc(C(C)C)c(O)cc2O)c1-c1ccc(CN2CCOCC2)cc1 [Luminespib] (partner 0.01 µM)
Summary of the method: (§1)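 After 5 days of treatment, lung cancer cells in 1536-well plates were fixed and stained in a single step (final 0.05% Triton X-100, 1% formaldehyde, 1 ug/ml Hoechst) and their nuclei counted on 4× images. Treatment had been applied by pin tool the day after seeding as one drug alone or as a fixed anchor-drug dose with five library-drug doses (not always all listed) in √10 steps. Relative viability is the nuclei count of treated wells divided by that of vehicle wells, and values are medians of duplicate plates.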

IPA-3 + Bortezomib = compound: C1=CC=C2C(=C1)C=CC(=C2SSC3=C(C=CC4=CC=CC=C43)O)O [IPA-3] + CC(C)C[C@H](NC(=O)[C@H](Cc1ccccc1)NC(=O)c1cnccn1)B(O)O [Bortezomib] (partner 0.002 µM)
Summary of the method: as §1

RAF265 + Trametinib = compound: Cn1c(Nc2ccc(C(F)(F)F)cc2)nc2cc(Oc3ccnc(-c4ncc(C(F)(F)F)[nH]4)c3)ccc21 [RAF265] + CC(=O)Nc1cccc(-n2c(=O)n(C3CC3)c(=O)c3c(Nc4ccc(I)cc4F)n(C)c(=O)c(C)c32)c1 [Trametinib] (partner 0.02 µM)
Summary of the method: as §1

IPA-3 + Pictilisib = compound: C1=CC=C2C(=C1)C=CC(=C2SSC3=C(C=CC4=CC=CC=C43)O)O [IPA-3] + CS(=O)(=O)N1CCN(Cc2cc3nc(-c4cccc5[nH]ncc45)nc(N4CCOCC4)c3s2)CC1 [Pictilisib] (partner 1 µM)
Summary of the method: as §1

Cell Line | relative viability (IPA-3 + Luminespib; first compound 0.2 µM) | relative viability (IPA-3 + Luminespib; first compound 0.6325 µM) | relative viability (IPA-3 + Luminespib; first compound 2 µM) | relative viability (IPA-3 + Luminespib; first compound 6.325 µM) | relative viability (IPA-3 + Luminespib; first compound 20 µM) | relative viability (IPA-3 + Bortezomib; first compound 0.2 µM) | relative viability (IPA-3 + Bortezomib; first compound 0.6325 µM) | relative viability (IPA-3 + Bortezomib; first compound 2 µM) | relative viability (IPA-3 + Bortezomib; first compound 6.325 µM) | relative viability (IPA-3 + Bortezomib; first compound 20 µM) | relative viability (RAF265 + Trametinib; first compound 0.01 µM) | relative viability (RAF265 + Trametinib; first compound 0.03162 µM) | relative viability (RAF265 + Trametinib; first compound 0.1 µM) | relative viability (RAF265 + Trametinib; first compound 0.3162 µM) | relative viability (RAF265 + Trametinib; first compound 1 µM) | relative viability (IPA-3 + Pictilisib; first compound 0.2 µM) | relative viability (IPA-3 + Pictilisib; first compound 0.6325 µM) | relative viability (IPA-3 + Pictilisib; first compound 2 µM) | relative viability (IPA-3 + Pictilisib; first compound 6.325 µM) | relative viability (IPA-3 + Pictilisib; first compound 20 µM)
NCI-H1437 | 1.15 | 0.951 | 1.1 | 1.03 | 1.24 | 1.09 | 0.467 | 0.443 | 0.438 | 0.587 | 0.544 | 0.552 | 0.505 | 0.716 | 0.493 | 0.562 | 0.486 | 0.458 | 0.61 | 0.616
EKVX | 0.826 | 0.781 | 0.867 | 0.938 | 1.01 | 1.31 | 0.995 | 1.12 | 0.988 | 1.54 | 0.387 | 0.385 | 0.417 | 0.217 | 0.277 | 0.62 | 0.421 | 0.499 | 0.484 | 0.575
NCI-H520 | 0.213 | 0.3 | 0.266 | 0.244 | 0.247 | 1.13 | 0.769 | 0.536 | 0.684 | 0.487 | 0.684 | 0.65 | 0.508 | 0.519 | 0.338 | 0.3 | 0.277 | 0.268 | 0.246 | 0.202
LCLC-97TM1 | 0.99 | 0.733 | 0.608 | 0.855 | 0.783 | 0.524 | 0.847 | 0.814 | 0.438 | 0.575 | 0.225 | 0.151 | 0.149 | 0.16 | 0.0901 | 0.195 | 0.165 | 0.198 | 0.216 | 0.175
NCI-H3122 | 0.0957 | 0.0861 | 0.108 | 0.074 | 0.116 | 0.994 | 1.01 | 1.03 | 1.13 | 0.938 | 0.26 | 0.203 | 0.21 | 0.208 | 0.173 | 0.612 | 0.566 | 0.559 | 0.697 | 0.594
PC-14 | 0.165 | 0.151 | 0.189 | 0.161 | 0.142 | 1.09 | 0.79 | 0.914 | 0.805 | 1.04 | 0.814 | 0.711 | 0.716 |  | 0.447 | 1.1 | 0.562 | 0.804 | 0.678 | 1.19
EPLC-272H | 0.469 | 0.473 | 0.352 | 0.416 | 0.553 | 0.87 | 0.95 | 0.816 | 0.861 | 1.13 | 0.28 | 0.287 | 0.3 | 0.204 | 0.205 | 0.309 | 0.338 | 0.273 | 0.343 | 0.401
A-427 | 1.02 | 0.855 | 0.999 | 0.803 | 1.02 | 0.976 | 0.974 | 1.01 | 0.942 | 1.01 | 0.905 | 0.507 | 0.592 | 0.403 | 0.198 | 0.682 | 0.683 | 0.784 | 0.604 | 0.784
